Data on 3 compounds can be found in patent US20190083521A1, “COMBINATION THERAPY FOR TREATING CANCER” (Epizyme, Inc., priority 2014, published 2019).

Read-outs that look alike come from different tables or passages of the source.

In experiment [1] the test system is OCI-AML-4 (MLL-ENL) cells. Put plainly: Example 7 primary screen: 300 nM EPZ-5676 pre-treatment, second compound 72 h, ATPLite, GI100 shift. The class given is cell-based. The following applies: OCI-AML-4 (MLL-ENL); 300 nM EPZ-5676 pre-treatment vs DMSO. The protocol: (§1) Cells were split using EPZ-5676 or DMSO containing growth media and further incubated for an additional 3-day pre-treatment time. Cells were finally seeded in growth media containing EPZ-5676 or DMSO in 384-well plates at 500 cell/well density. Cells were then equilibrated in incubators for 24 hours before treatment with a second compound. Treated assay plates were incubated with a second compound for 72 hours. After this time, plates were developed for endpoint analysis using ATPLite to measure ATP content, which is used as an indicator of cell viability.
(§2) “N/D” means the GI100 of the second compound could not be determined for both conditions and “-” means not tested.
(§3) Growth Inhibition (GI) as a measure of cell viability: The cell viability of vehicle was measured at the time of dosing the second agent (T0) and after seventy-two hours (T72). A GI reading of 0% represents no growth inhibition—cells treated with test compound as compared to T72 vehicle signals were measured. […] A GI 200% represents complete death of all cells in the culture well. Compounds reaching an activity plateau of GI 200% are considered cytotoxic. GI is calculated by applying the following test and equation: […]
Background: In ATP-based viability assays light output follows the ATP content of the culture.

The subject of experiment [2] is SKM-1 (non-MLLr) cells. As to the kind of experiment: Example 7 retest: EPZ-5676 pre-treatment, second compound 72 h, Cell Titer Glo, growth inhibition. Format: cell-based, human. On the set-up: GI100: unit not given here. To be noted: for Combination result with EPZ-5676, Retest: 300 nM EPZ-5676 pre-treatment vs DMSO. Here is the method:
(§4) Cells were then treated with a second compound for 72 hours. After this time, plates were developed for endpoint analysis using Cell Titer Glo to measure ATP content, which is used as an indicator of cell viability.
as §2
(§5) Growth Inhibition (GI) as a measure of cell viability: The cell viability of vehicle was measured at the time of dosing the second agent (T0) and after seventy-two hours (T72). […] A GI 200% represents complete death of all cells in the culture well. Compounds reaching an activity plateau of GI 200% are considered cytotoxic. GI is calculated by applying the following test and equation: […]

The test system of experiment [3] is MOLM-13 (MLL-AF9) cells. The experiment is described as above. Format: cell-based, human. More on the design: GI100: unit not given here. The following applies: for GI50: Homo sapiens; for Combination result with EPZ-5676, Retest: 150 nM EPZ-5676 pre-treatment vs DMSO. Here is the method: as §4, §2, §5
The test system of experiment [4] is SKM-1 (non-MLLr) cells. Put plainly: Example 7 primary screen: 300 nM EPZ-5676 pre-treatment, second compound 72 h, ATPLite, GI100 shift. The class given is cell-based, human. The following applies: SKM-1 (non-MLLr); 300 nM EPZ-5676 pre-treatment vs DMSO. The protocol: as §1, §2, §3
Experiment [5] has as its system MOLM-13 (MLL-AF9) cells. The description is as above. The class given is cell-based, human. The following applies: MOLM-13 (MLL-AF9); 300 nM EPZ-5676 pre-treatment vs DMSO. Here is the method:
as §1, §2, §3

The test system of the next experiment is THP-1 (MLL-AF9) cells. As to the kind of experiment: Example 7 retest: EPZ-5676 pre-treatment, second compound 72 h, Cell Titer Glo, growth inhibition. Format: cell-based. More on the design: GI100: unit not given here. To be noted: NRAS G12D. The protocol:
Cells were split using EPZ-5676 or DMSO containing growth media and further incubated for an additional 3-day pre-treatment time. Cells were finally seeded in growth media containing EPZ-5676 or DMSO in 96-well plates. Cells were then treated with a second compound for 72 hours. After this time, plates were developed for endpoint analysis using Cell Titer Glo to measure ATP content, which is used as an indicator of cell viability.
as §2, §3

In another experiment the test system is ML-2 (MLL-AF6) cells. The description is as above. The class given is cell-based. More on the design: GI100: unit not given here. The protocol: as §4, §2, §5
For another experiment, the system named is RS4-11 (MLL-AF4) cells. The experiment is described as above. The class given is cell-based. More on the design: GI100: unit not given here. To be noted: for GI50: Homo sapiens. The protocol: as §4, §2, §5
Experiment [6] relates to OCI-AML-4 (MLL-ENL) cells. Described as above. Format: cell-based. To be noted: for Combination result with EPZ-5676, Retest: 300 nM EPZ-5676 pre-treatment vs DMSO. Here is the method:
as §4, §2, §5

[7] abbreviates: SKM-1 (non-MLLr), KRAS K117N (homo).
The mark [8] stands for this setting: SKM-1 (non-MLLr), KRAS K117N (homo), second compound, 72 h.
Setting [9] is: MOLM-13 (MLL-AF9), Ras mutation status: None known, second compound, 72 h.
Setting [10] is: MOLM-13 (MLL-AF9), Ras mutation status: None known.
The mark [11] stands for this setting: ML-2 (MLL-AF6), KRAS A146T (het), second compound, 72 h.
[12] abbreviates: RS4-11 (MLL-AF4), Ras mutation status: None known, second compound, 72 h.
Setting [13] is: OCI-AML-4 (MLL-ENL), NRAS Q61R (het).
Where [14] appears, read: OCI-AML-4 (MLL-ENL), NRAS Q61R (het), second compound, 72 h.

For the compound `Cn1cnc2c(F)c(Nc3ccc(Br)cc3Cl)c(C(=O)NOCCO)cc21` [Selumetinib (AZD6244), Selumetinib], the “Combination result with EPZ-5676, Primary screen” value (in [1]; in the experiment with SKM-1 (non-MLLr) cells [4]; with MOLM-13 (MLL-AF9) cells [5]) was “Synergy (considered synergistic if the GI100 (Growth inhibition 100) value of the second compound decreased by 2-fold or more when EPZ-5676 was added as compared to the DMSO control)” throughout. Further, the “Combination result with EPZ-5676, Retest” value (in the experiment with SKM-1 (non-MLLr) cells [2] (SKM-1 (non-MLLr)); in the experiment on MOLM-13 (MLL-AF9) cells [3] (MOLM-13 (MLL-AF9)); in experiment [6] (OCI-AML-4 (MLL-ENL))) was “Synergy (considered synergistic if the GI100 (Growth inhibition 100) value of the second compound decreased by 2-fold or more when EPZ-5676 was added as compared to the DMSO control)” in each case. The “Result (combination with EPZ-5676)” value (in the experiment with SKM-1 (non-MLLr) cells [2] (setting [7]); with MOLM-13 (MLL-AF9) cells [3] (setting [10]); in experiment [6] (setting [13])) was “Synergy (considered synergistic if the GI100 (Growth inhibition 100) value of the second compound decreased by 2-fold or more when EPZ-5676 was added as compared to the DMSO control)” in each case. Also, the GI50 (commonly the concentration that inhibits growth by half) with SKM-1 (non-MLLr) cells [2] (setting [8]) was 20 nM; in the experiment on MOLM-13 (MLL-AF9) cells [3] (setting [9]) it was 1250 nM; in the experiment on THP-1 (MLL-AF9) cells, 160 nM; in the experiment with ML-2 (MLL-AF6) cells (setting [11]), 40 nM; in the experiment on RS4-11 (MLL-AF4) cells (setting [12]), > 10000 nM; in [6] (setting [14]), 116 nM. Also, the GI100 in the experiment with SKM-1 (non-MLLr) cells [2] (setting [8]) is listed as 0.12; with MOLM-13 (MLL-AF9) cells [3] (setting [9]) it was 7.28; in the experiment on THP-1 (MLL-AF9) cells it was >10; in the experiment on ML-2 (MLL-AF6) cells (setting [11]), 0.93; with RS4-11 (MLL-AF4) cells (setting [12]), >10; in experiment [6] (setting [14]) it was 3.169.

As to `CNC(=O)c1cc(Oc2ccc(NC(=O)Nc3ccc(Cl)c(C(F)(F)F)c3)cc2)ccn1` [Sorafenib], the “Combination result with EPZ-5676, Retest” value with MOLM-13 (MLL-AF9) cells [3] (MOLM-13 (MLL-AF9)) is on record as “Synergy (considered synergistic if the GI100 (Growth inhibition 100) value of the second compound decreased by 2-fold or more when EPZ-5676 was added as compared to the DMSO control)”. The “Combination result with EPZ-5676, Primary screen” value in the experiment with MOLM-13 (MLL-AF9) cells [5] is on record as “Synergy (considered synergistic if the GI100 (Growth inhibition 100) value of the second compound decreased by 2-fold or more when EPZ-5676 was added as compared to the DMSO control)”.

On to `CC(=O)Nc1cccc(-n2c(=O)n(C3CC3)c(=O)c3c(Nc4ccc(I)cc4F)n(C)c(=O)c(C)c32)c1` [Trametinib], for which the “Combination result with EPZ-5676, Primary screen” value (in experiment [1]; in the experiment with SKM-1 (non-MLLr) cells [4]; in the experiment on MOLM-13 (MLL-AF9) cells [5]) was “Synergy (considered synergistic if the GI100 (Growth inhibition 100) value of the second compound decreased by 2-fold or more when EPZ-5676 was added as compared to the DMSO control)” throughout. In addition, the GI100 with SKM-1 (non-MLLr) cells [2] is given as 0.004; in the experiment with MOLM-13 (MLL-AF9) cells [3], 0.03; in the experiment with ML-2 (MLL-AF6) cells it was 0.001; with RS4-11 (MLL-AF4) cells, >10; in experiment [6], 0.009. Besides, the “Combination result with EPZ-5676, Retest” value (with SKM-1 (non-MLLr) cells [2] (SKM-1 (non-MLLr)); in the experiment with MOLM-13 (MLL-AF9) cells [3] (MOLM-13 (MLL-AF9)); in [6] (OCI-AML-4 (MLL-ENL))) was “Synergy (considered synergistic if the GI100 (Growth inhibition 100) value of the second compound decreased by 2-fold or more when EPZ-5676 was added as compared to the DMSO control)” each time. Besides, the “Result (combination with EPZ-5676)” value is “Synergy (considered synergistic if the GI100 (Growth inhibition 100) value of the second compound decreased by 2-fold or more when EPZ-5676 was added as compared to the DMSO control)” with SKM-1 (non-MLLr) cells [2] (setting [7]); “Synergy (considered synergistic if the GI100 (Growth inhibition 100) value of the second compound decreased by 2-fold or more when EPZ-5676 was added as compared to the DMSO control)” with MOLM-13 (MLL-AF9) cells [3] (setting [10]); “Synergy (considered synergistic if the GI100 (Growth inhibition 100) value of the second compound decreased by 2-fold or more when EPZ-5676 was added as compared to the DMSO control)” in the experiment on ML-2 (MLL-AF6) cells (ML-2 (MLL-AF6), KRAS A146T (het)); “Synergy (considered synergistic if the GI100 (Growth inhibition 100) value of the second compound decreased by 2-fold or more when EPZ-5676 was added as compared to the DMSO control)” in experiment [6] (setting [13]). In addition, the GI50 is 1 nM with SKM-1 (non-MLLr) cells [2] (setting [8]); 10 nM in the experiment with MOLM-13 (MLL-AF9) cells [3] (setting [9]); 2 nM in the experiment with THP-1 (MLL-AF9) cells; 1 nM in the experiment with ML-2 (MLL-AF6) cells (setting [11]); > 10000 nM in the experiment on RS4-11 (MLL-AF4) cells (setting [12]); 2 nM in experiment [6] (setting [14]).
